The values below come from BindingDB's records for doi:10.1021/jm060797q (Teikyo University, 2006).

pIC50: −log10 of the molar value.

This assay in a line: Antagonist activity against 1-alpha,25-dihydroxy vitamin D3-induced HL60 cell differentiation by NBT reduction method.
With `C=C1C(=O)O[C@H](C[C@@H](C)[C@H]2CC[C@H]3/C(=C/C=C4/C[C@@H](O)[C@H](CCCO)[C@H](O)C4=C)CCC[C@]23C)[C@@H]1C`, the pIC50 (commonly −log10 of the IC50, conventionally taken in molar units) was 8.21.

In turn, `C=C1/C(=C\C=C2/CCC[C@]3(C)[C@@H]([C@H](C)C[C@H]4OC(=O)C(=C)[C@@H]4CCCC)CC[C@@H]23)C[C@@H](O)[C@H](OCCCO)[C@@H]1O` showed a negative-log IC50 (pIC50) of 8.06.

`C=C1/C(=C\C=C2/CCC[C@]3(C)[C@@H]([C@H](C)C[C@H]4OC(=O)C(=C)[C@@H]4CC)CC[C@@H]23)C[C@@H](O)[C@H](CCCO)[C@@H]1O` gave a pIC50 of 8.08.

As for `C=C1/C(=C\C=C2/CCC[C@]3(C)[C@@H]([C@H](C)C[C@@H]4OC(=O)C(=C)[C@@H]4CC)CC[C@@H]23)C[C@@H](O)[C@H](C)[C@@H]1O`, the pIC50 was 8.17.

Compound `C=C1/C(=C\C=C2/CCC[C@]3(C)[C@@H]([C@H](C)C[C@@H]4OC(=O)C(=C)[C@@H]4CC(C)C)CC[C@@H]23)C[C@@H](O)C[C@@H]1O` gave a pIC50 of 8.02. The pIC50 values of the last two compounds are within 0.2 log units of each other.

Compound `C=C1C(=O)O[C@H](C[C@@H](C)[C@H]2CC[C@H]3/C(=C/C=C4/C[C@@H](O)C[C@H](O)C4=C)CCC[C@]23C)[C@@H]1CCCC` showed a pIC50 of 8.09.

The compound `C=C1/C(=C\C=C2/CCC[C@]3(C)[C@@H]([C@H](C)C[C@H]4OC(=O)C(=C)[C@@H]4CCC)CC[C@@H]23)C[C@@H](O)C[C@@H]1O` gave a negative logarithm of the IC50 (pIC50) of 8.22. The pIC50 values of the last two compounds are within 0.2 log units of each other.

The compound `C=C1C[C@H](C[C@@H](C)[C@H]2CC[C@H]3/C(=C/C=C4/C[C@@H](O)C[C@H](O)C4=C)CCC[C@]23C)OC1=O` had a pIC50 of 8.20.

For `C=C1/C(=C\C=C2/CCC[C@]3(C)[C@@H]([C@H](C)C[C@@H]4OC(=O)C(=C)[C@@H]4CC(C)C)CC[C@@H]23)C[C@@H](O)[C@H](C)[C@@H]1O`, the pIC50 was 7.96.

Turning to `C=C1/C(=C\C=C2/CCC[C@]3(C)[C@@H]([C@H](C)C[C@H]4OC(=O)C(=C)[C@@H]4CC)CC[C@@H]23)C[C@@H](O)C[C@@H]1O`, the pIC50 is 8.07. The pIC50 values of the last two compounds are within 0.2 log units of each other.

Consider `C=C1/C(=C\C=C2/CCC[C@]3(C)[C@@H]([C@H](C)C[C@@H]4OC(=O)C(=C)[C@@H]4CCCC)CC[C@@H]23)C[C@@H](O)[C@H](OCCCO)[C@@H]1O`, for which the negative-log IC50 (pIC50) is 8.06.

The compound `C=C1/C(=C\C=C2/CCC[C@]3(C)[C@@H]([C@H](C)C[C@H]4OC(=O)C(=C)[C@@H]4CC(C)C)CC[C@@H]23)C[C@@H](O)C[C@@H]1O` gave a negative logarithm of the IC50 (pIC50) of 8.00.

In turn, `C=C1/C(=C\C=C2/CCC[C@]3(C)[C@@H]([C@H](C)C[C@@H]4OC(=O)C(=C)[C@@H]4CCCC)CC[C@@H]23)C[C@@H](O)C[C@@H]1O` gave a pIC50 of 8.09. The pIC50 values of the last two compounds are within 0.2 log units of each other.

In the case of `C=C1/C(=C\C=C2/CCC[C@]3(C)[C@@H]([C@H](C)C[C@@H]4OC(=O)C(=C)[C@H]4CC)CC[C@@H]23)C[C@@H](O)[C@H](CCCO)[C@@H]1O`, the pIC50 is 8.08.

`C=C1/C(=C\C=C2/CCC[C@]3(C)[C@@H]([C@H](C)C[C@H]4OC(=O)C(=C)[C@@H]4C)CC[C@@H]23)C[C@@H](O)[C@H](OCCCO)[C@@H]1O`: the negative logarithm of the IC50 (pIC50) is 8.21.

`C=C1/C(=C\C=C2/CCC[C@]3(C)[C@@H]([C@H](C)C[C@@H]4OC(=O)C(=C)[C@@H]4CCCC)CC[C@@H]23)C[C@@H](O)[C@H](C)[C@@H]1O` gave a pIC50 of 8.17. The pIC50 values of the last two compounds are within 0.2 log units of each other.

Turning to `C=C1/C(=C\C=C2/CCC[C@]3(C)[C@@H]([C@H](C)C[C@@H]4OC(=O)C(=C)[C@@H]4C)CC[C@@H]23)C[C@@H](O)C[C@@H]1O`, the pIC50 is 8.11.

On to `C=C1C(=O)O[C@H](C[C@@H](C)[C@H]2CC[C@H]3/C(=C/C=C4/C[C@@H](O)C[C@H](O)C4=C)CCC[C@]23C)[C@@H]1CC`, for which the pIC50 was 8.07.

Compound `C=C1/C(=C\C=C2/CCC[C@]3(C)[C@@H]([C@H](C)C[C@H]4OC(=O)C(=C)[C@@H]4CCCC)CC[C@@H]23)C[C@@H](O)[C@H](C)[C@@H]1O` had a pIC50 of 8.17.

As for `C=C1/C(=C\C=C2/CCC[C@]3(C)[C@@H]([C@H](C)C[C@@H]4OC(=O)C(=C)[C@H]4CC(C)C)CC[C@@H]23)C[C@@H](O)[C@H](CCCO)[C@@H]1O`, the negative logarithm of the IC50 (pIC50) was 8.03.

Regarding `C=C1/C(=C\C=C2/CCC[C@]3(C)[C@@H]([C@H](C)C[C@@H]4OC(=O)C(=C)[C@H]4CCC)CC[C@@H]23)C[C@@H](O)[C@H](CCCO)[C@@H]1O`, the negative logarithm of the IC50 (pIC50) was 8.20.

With `C=C1/C(=C\C=C2/CCC[C@]3(C)[C@@H]([C@H](C)C[C@H]4OC(=O)C(=C)[C@H]4CC)CC[C@@H]23)C[C@@H](O)[C@H](OCCCO)[C@@H]1O`, the negative-log IC50 (pIC50) is 8.08.

For `C=C1/C(=C\C=C2/CCC[C@]3(C)[C@@H]([C@H](C)C[C@@H]4OC(=O)C(=C)[C@@H]4C)CC[C@@H]23)C[C@@H](O)[C@H](C)[C@@H]1O`, the negative-log IC50 (pIC50) is 8.17.

`C=C1/C(=C\C=C2/CCC[C@]3(C)[C@@H]([C@H](C)C[C@H]4OC(=O)C(=C)[C@@H]4CCC)CC[C@@H]23)C[C@@H](O)[C@H](CCCO)[C@@H]1O` gave a pIC50 of 8.20.

Consider `C=C1/C(=C\C=C2/CCC[C@]3(C)[C@@H]([C@H](C)C[C@@H]4OC(=O)C(=C)[C@H]4CC(C)C)CC[C@@H]23)C[C@@H](O)[C@H](C)[C@@H]1O`, for which the pIC50 was 7.96.

Take `C=C1/C(=C\C=C2/CCC[C@]3(C)[C@@H]([C@H](C)C[C@H]4OC(=O)C(=C)[C@@H]4CCC)CC[C@@H]23)C[C@@H](O)[C@H](OCCCO)[C@@H]1O`: the pIC50 is 8.20.

Regarding `C=C1C(=O)O[C@@H](C[C@@H](C)[C@H]2CC[C@H]3/C(=C/C=C4/C[C@@H](O)[C@H](C)[C@H](O)C4=C)CCC[C@]23C)[C@@H]1C`, the negative-log IC50 (pIC50) was 8.17. The pIC50 values of the last two compounds are within 0.2 log units of each other.

Take `C=C1/C(=C\C=C2/CCC[C@]3(C)[C@@H]([C@H](C)C[C@@H]4OC(=O)C(=C)[C@@H]4CC)CC[C@@H]23)C[C@@H](O)C[C@@H]1O`: the pIC50 is 8.07.

`C=C1/C(=C\C=C2/CCC[C@]3(C)[C@@H]([C@H](C)C[C@@H]4OC(=O)C(=C)[C@@H]4CCCC)CC[C@@H]23)C[C@@H](O)[C@H](CCCO)[C@@H]1O` gave a pIC50 of 8.06. This pIC50 and that of the compound before are within 0.2 log units of each other.

On to `C=C1/C(=C\C=C2/CCC[C@]3(C)[C@@H]([C@H](C)C[C@@H]4OC(=O)C(=C)[C@H]4CCCC)CC[C@@H]23)C[C@@H](O)[C@H](C)[C@@H]1O`, for which the pIC50 was 8.17.

The compound `C=C1C(=O)O[C@H](C[C@@H](C)[C@H]2CC[C@H]3/C(=C/C=C4/C[C@@H](O)C[C@H](O)C4=C)CCC[C@]23C)[C@@H]1C` gave a pIC50 of 8.04.
